From patent US4108994A, “5-Thiazole-methane-amines, and their use as antilipolytics” (Roussel Uclaf, priority 1975, dated 1978)
Where a name gives a salt, the structure may show the parent alone.

Columns and labels:
[1] = test system: glycemia; assay: Hypoglycemiant activity: determination of glycemia; type: in vivo, Male rats of the Sprague Dawley SPF strain; settings: oral, starved rats, one hour
Protocol: C. Hypoglycemiant Activity: Determination of Glycemia
Male rats of the Sprague Dawley SPF strain weighing between 180 and 200 gm were starved for 24 hours and were then given the test product orally. One hour after the administration, the animals were killed by carotidienne section and blood samples were taken to determine the glycemia. The seric extract was treated by the enzymatic (glucose-oxydase) method of Boehringer and the percent of reduction of glycemia as compared to the controls was determined for each dose of the product administered.

[2] = acute toxicity, intraperitoneal, mice (DL50); settings: mouse, in vivo, ip, suspension in carboxymethylcellulose, observed one week, read-out: DL50 (average lethal dose)
Protocol: The acute toxicity was determined on groups of 10 mice weighing between 18 and 22 g and the product was administered intraperitoneally as a suspension in carboxymethylcellulose.

[3] = test system: plasmatic free fatty acids; assay: Antilipolytic activity: determination of plasmatic free fatty acids in the blood; type: in vivo, Male rats of the Sprague Dawley SPF strain; settings: oral; for ED50: Rattus norvegicus, 1 h, starved rats, one hour after administration, read-out: DA50 (dose which reduced by 50% the level of free fatty acids as compared to controls); for reduction of the amount of plasmatic free fatty acids in the blood (in words): rats
Protocol: B. Antilipolytic Activity: Determination of Plasmatic Free Fatty Acids in the Blood
Male rats of the Sprague Dawley SPF strain weighing about 180 to 200 gm were starved for 24 hours and then were given the product orally. One hour after the oral administration, the animals were killed by carotidienne section and samples of the blood were obtained to determine the amount of free fatty acids. The extraction of the free fatty acids was made by the technique of Dole [J. Clin. Invest., Vol. 38 (1959), p. 1544-1554] as modified by Trout et al. [J. Lipid. Res., Vol. 1 (1960) p. 199-202]. The plasmatic extract freed of phospholipids was colorimetrically examined by the method of Anthonis [J. Lipid. Res., Vol. 6 (1965), p. 307-312]. Under these test conditions, the dose of the products which reduced by 50% the level of free fatty acids in the treated animals as compared to the controls (DA50) was determined.

CCCc1ncc(CN)s1 [Example 5, hemisuccinate of 2-n-propyl-5-thiazole-methane-amine]
Percentage of reduction of the glycemia ([1]; 5 mg/kg): -12%
Percentage of reduction of the glycemia ([1]; 10 mg/kg): -14%
Percentage of reduction of the glycemia ([1]; 20 mg/kg): -27%
LD50 at 168 h [2]: ~650 mg/kg
ED50 [3]: ~8 mg/kg
reduction of the amount of plasmatic free fatty acids in the blood (in words) [3]: clear reduction

Cc1ncc(CN2CCN(C)CC2)s1 [Example 7, 2-methyl-5-(4-methyl-piperazin-1-yl-methyl)-thiazole]
LD50 at 168 h [2]: ~500 mg/kg

Cc1ncc(CN(CCO)CCO)s1 [Example 4, dinitrate of N,N-bis-(β-hydroxyethyl)-2-methyl-5-thiazole-methane-amine]
LD50 at 168 h [2]: ~900 mg/kg

Cc1ncc(CN(C)C)s1 [Example 3, maleate of N,N,2-trimethyl-5-thiazole-methane-amine]
LD50 at 168 h [2]: ~450 mg/kg
ED50 [3]: ~5 mg/kg
reduction of the amount of plasmatic free fatty acids in the blood (in words) [3]: clear reduction

Cc1ncc(CN)s1 [Example 1, hemisuccinate of 2-methyl-5-thiazole-methane-amine]
LD50 at 168 h [2]: > 1000 mg/kg
ED50 [3]: ~0.8 mg/kg
reduction of the amount of plasmatic free fatty acids in the blood (in words) [3]: clear reduction

CNCc1cnc(C)s1 [Example 2, acetate of N,2-dimethyl-5-thiazole-methane-amine]
LD50 at 168 h [2]: ~700 mg/kg
ED50 [3]: ~4 mg/kg
reduction of the amount of plasmatic free fatty acids in the blood (in words) [3]: clear reduction
